# Test results from patent US11046681B2, “Substituted piperidines for the treatment of cancer” (LES LABORATOIRES SERVIER, priority 2016, dated 2021).
# Target: His-His-USP7 (aa208-560, [C315A]) (Homo sapiens (Human), UniProt Q93009, C315A)
# Assay: Evaluation of the inhibition of USP7 by Fluorescence Intensity (FLINT) readings
# Format: biochemical
# Conditions: 0.25 nM USP7, 60 minutes at 30° C. preincubation, 500 nM Ubiquitin-Rhodamine-110 substrate, 50% reduction in kinetic rate
# Description: USP7 activity was measured using Rhodamine-110 c-terminal labelled Ubiquitin as a substrate (Viva Biosciences). Incubation with USP7 results in the release of Rhodamine-110 leading to an increase in fluorescence which can be used in the continuous measurement of USP7 activity.
# The USP7 reactions were performed in a 50 μL volume, in 384 well black solid low binding plates (Corning #3575). The reaction buffer consisted of 100 mM Bicine pH 8.0, 0.01% TritonX100, 1 mM TCEP, and 10% DMSO.
# 0.25 nM His-His-USP7 (aa208-560, [C315A]) was incubated with compound (final concentration 10% DMSO) for 60 minutes at 30° C. The reaction was then initiated by the addition of 500 nM Ubiquitin-Rhodamine-110 substrate and the plate read every 3 minutes for 21 minutes to measure the release of Rhodamine-110. Fluorescence Intensity (FLINT) readings were measured using a […] Neo plate reader (Ex.485 nm, Em.535 nm).
# The inhibition of increasing doses of compound was expressed as a percentage reduction in kinetic rate compared to the kinetic rates established between ‘DMSO only’ and ‘total inhibition’ controls (no USP7). The inhibitory concentrations that gave a 50% reduction in kinetic rate (IC50) were determined, from 11-point dose response curves, in XL-Fit using a 4-Parameter Logistic Model (Sigmoidal Dose-Response Model).
# Chain of His-His-USP7 (aa208-560, [C315A]) (Q93009 208-560 C315A): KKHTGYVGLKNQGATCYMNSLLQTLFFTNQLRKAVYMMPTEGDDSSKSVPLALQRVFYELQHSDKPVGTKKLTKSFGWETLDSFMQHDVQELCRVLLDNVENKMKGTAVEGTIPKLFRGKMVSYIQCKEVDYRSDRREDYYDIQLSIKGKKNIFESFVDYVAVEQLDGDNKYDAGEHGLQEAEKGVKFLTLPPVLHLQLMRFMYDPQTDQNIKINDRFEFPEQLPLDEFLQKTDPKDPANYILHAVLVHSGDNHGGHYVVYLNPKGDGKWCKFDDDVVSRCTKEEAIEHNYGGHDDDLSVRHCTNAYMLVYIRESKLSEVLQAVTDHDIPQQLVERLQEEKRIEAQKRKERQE
row,Structure (SMILES),IC50 [nM]
1,"CC(C)(C)OC(=O)N1CC[C@@H](C(=O)N2CCC(O)(Cn3cnc4sccc4c3=O)CC2)[C@H](c2ccccc2)C1 [EXAMPLE 2, tert-butyl (3R,4R)-4-[4-hydroxy-4-[(4-oxothieno[2,3-d]pyrimidin-3-yl)methyl]piperidine-1-carbonyl]-3-phenyl-piperidine-1-carboxylate]",128
2,"COc1ccc(-n2ncc3c(=O)n(CC4(O)CCN(C(=O)[C@@H]5CCN(C(=O)OC(C)(C)C)C[C@H]5c5ccccc5)CC4)cnc32)cc1 [EXAMPLE 44, tert-butyl (3R,4R)-4-[4-hydroxy-4-[[1-(4-methoxyphenyl)-4-oxo-pyrazolo[3,4-d]pyrimidin-5-yl]methyl]piperidine-1-carbonyl]-3-phenyl-piperidine-1-carboxylate]",61.5
3,"COc1cc(-n2ccc3c(=O)n(CC4(O)CCN(C(=O)[C@@H]5CCN(C(=O)OC(C)(C)C)C[C@H]5c5ccccc5)CC4)cnc32)ccc1F [EXAMPLE 57, tert-butyl (3R,4R)-4-[4-[[7-(4-fluoro-3-methoxy-phenyl)-4-oxo-pyrrolo[2,3-d]pyrimidin-3-yl]methyl]-4-hydroxy-piperidine-1-carbonyl]-3-phenyl-piperidine-1-carboxylate]",70.2
4,"O=C([C@@H]1CCNC[C@H]1c1ccccc1)N1CCC(O)(Cn2cnc3c(cnn3-c3ccccc3)c2=O)CC1 [EXAMPLE 103, 5-[[4-hydroxy-1-[(3R,4R)-3-phenylpiperidine-4-carbonyl]-4-piperidyl]methyl]-1-phenyl-pyrazolo[3,4-d]pyrimidin-4-one]",52.9
5,"O=C([C@@H]1CCNC[C@H]1c1ccccc1)N1CCC(O)(Cn2cnc3c(ccn3-c3ccccn3)c2=O)CC1 [EXAMPLE 104, 3-[[4-hydroxy-1-[(3R,4R)-3-phenylpiperidine-4-carbonyl]-4-piperidyl]methyl]-7-(2-pyridyl)pyrrolo[2,3-d]pyrimidin-4-one]",394
6,"O=C([C@@H]1CCN(CC(F)(F)F)C[C@H]1c1ccccc1)N1CCC(O)(Cn2cnc3[nH]ccc3c2=O)CC1 [EXAMPLE 117, 3-[[4-hydroxy-1-[(3R,4R)-3-phenyl-1-(2,2,2-trifluoroethyl)piperidine-4-carbonyl]-4-piperidyl]methyl]-7H-pyrrolo[2,3-d]pyrimidin-4-one]",1200
7,"O=C([C@@H]1CCNC[C@H]1c1ccccc1)N1CCC(O)(Cn2cnc3c(ccn3-c3ccc(F)cc3)c2=O)CC1 [EXAMPLE 130, 7-(4-fluorophenyl)-3-[[4-hydroxy-1-[(3R,4R)-3-phenylpiperidine-4-carbonyl]-4-piperidyl]methyl]pyrrolo[2,3-d]pyrimidin-4-one]",37.7
8,"O=C([C@@H]1CCNC[C@H]1c1ccccc1)N1CCC(O)(Cn2cnc3c(ccn3-c3cccc(Cl)c3)c2=O)CC1 [EXAMPLE 142, 7-(3-chlorophenyl)-3-[[4-hydroxy-1-[(3R,4R)-3-phenylpiperidine-4-carbonyl]-4-piperidyl]methyl]pyrrolo[2,3-d]pyrimidin-4-one]",56.7
9,"O=C([C@@H]1CCNC[C@H]1c1ccccc1)N1CCC(O)(Cn2cnc3c(ccn3-c3ccc(Cl)cc3)c2=O)CC1 [EXAMPLE 143, 7-(4-chlorophenyl)-3-[[4-hydroxy-1-[(3R,4R)-3-phenylpiperidine-4-carbonyl]-4-piperidyl]methyl]pyrrolo[2,3-d]pyrimidin-4-one]",41.2
10,"CC(=O)N1CC[C@@H](C(=O)N2CCC(O)(Cn3cnc4c(ccn4-c4ccccc4)c3=O)CC2)[C@H](c2ccccc2)C1 [EXAMPLE 147, 3-[[1-[(3R,4R)-1-acetyl-3-phenyl-piperidine-4-carbonyl]-4-hydroxy-4-piperidyl]methyl]-7-phenyl-pyrrolo[2,3-d]pyrimidin-4-one]",406
11,"COc1ccc(-n2ccc3c(=O)n(CC4(O)CCN(C(=O)[C@@H]5CCN(C)C[C@H]5c5ccccc5)CC4)cnc32)cc1 [EXAMPLE 151, 3-[[4-hydroxy-1-[(3R,4R)-1-methyl-3-phenyl-piperidine-4-carbonyl]-4-piperidyl]methyl]-7-(4-methoxyphenyl)pyrrolo[2,3-d]pyrimidin-4-one]",52.4
12,"COc1cccc(-n2ccc3c(=O)n(CC4(O)CCN(C(=O)[C@@H]5CCN(C(C)=O)C[C@H]5c5ccccc5)CC4)cnc32)c1 [EXAMPLE 179, 3-[[1-[(3R,4R)-1-acetyl-3-phenyl-piperidine-4-carbonyl]-4-hydroxy-4-piperidyl]methyl]-7-(3-methoxyphenyl)pyrrolo[2,3-d]pyrimidin-4-one]",88.4

# Further lines, results first:
row,IC50 [nM],Structure (SMILES)
1,274,"CC(C)(C)OC(=O)N1CC[C@@H](C(=O)N2CCC(O)(Cn3cnc4c(ccn4-c4ccccn4)c3=O)CC2)[C@H](c2ccccc2)C1 [EXAMPLE 15, tert-butyl (3R,4R)-4-[4-hydroxy-4-[[4-oxo-7-(2-pyridyl)pyrrolo[2,3-d]pyrimidin-3-yl]methyl]piperidine-1-carbonyl]-3-phenyl-piperidine-1-carboxylate]"
2,68.7,"CC(C)(C)OC(=O)N1CC[C@@H](C(=O)N2CCC(O)(Cn3cnc4c(cnn4-c4ccc5c(c4)OCCO5)c3=O)CC2)[C@H](c2ccccc2)C1 [EXAMPLE 64, tert-butyl (3R,4R)-4-[4-[[1-(2,3-dihydro-1,4-benzodioxin-6-yl)-4-oxo-pyrazolo[3,4-d]pyrimidin-5-yl]methyl]-4-hydroxy-piperidine-1-carbonyl]-3-phenyl-piperidine-1-carboxylate]"
3,140,"CN1CC[C@@H](C(=O)N2CCC(O)(Cn3cnc4c(ccn4-c4ccccc4)c3=O)CC2)[C@H](c2ccccc2)C1 [EXAMPLE 121, 3-[[4-hydroxy-1-[(3R,4R)-1-methyl-3-phenyl-piperidine-4-carbonyl]-4-piperidyl]methyl]-7-phenyl-pyrrolo[2,3-d]pyrimidin-4-one]"
4,48.6,"COc1cccc(-n2ccc3c(=O)n(CC4(O)CCN(C(=O)[C@@H]5CCNC[C@H]5c5ccccc5)CC4)cnc32)c1 [EXAMPLE 136, 3-[[4-hydroxy-1-[(3R,4R)-3-phenylpiperidine-4-carbonyl]-4-piperidyl]methyl]-7-(3-methoxyphenyl)pyrrolo[2,3-d]pyrimidin-4-one]"
5,74.8,"CN1CC[C@@H](C(=O)N2CCC(O)(Cn3cnc4c(ccn4-c4ccc(F)cc4)c3=O)CC2)[C@H](c2ccccc2)C1 [EXAMPLE 141, 7-(4-fluorophenyl)-3-[[4-hydroxy-1-[(3R,4R)-1-methyl-3-phenyl-piperidine-4-carbonyl]-4-piperidyl]methyl]pyrrolo[2,3-d]pyrimidin-4-one]"
6,64.8,"CN1CC[C@@H](C(=O)N2CCC(O)(Cn3cnc4c(ccn4-c4cccc(Cl)c4)c3=O)CC2)[C@H](c2ccccc2)C1 [EXAMPLE 152, 7-(3-chlorophenyl)-3-[[4-hydroxy-1-[(3R,4R)-1-methyl-3-phenyl-piperidine-4-carbonyl]-4-piperidyl]methyl]pyrrolo[2,3-d]pyrimidin-4-one]"
7,39.3,"COc1cc(-n2ccc3c(=O)n(CC4(O)CCN(C(=O)[C@@H]5CCNC[C@H]5c5ccccc5)CC4)cnc32)ccc1F [EXAMPLE 157, 7-(4-fluoro-3-methoxy-phenyl)-3-[[4-hydroxy-1-[(3R,4R)-3-phenylpiperidine-4-carbonyl]-4-piperidyl]methyl]pyrrolo[2,3-d]pyrimidin-4-one]"
8,108,"CC(C)CN1CC[C@@H](C(=O)N2CCC(O)(Cn3cnc4c(ccn4-c4ccccc4)c3=O)CC2)[C@H](c2ccccc2)C1 [EXAMPLE 163, 3-[[4-hydroxy-1-[(3R,4R)-1-isobutyl-3-phenyl-piperidine-4-carbonyl]-4-piperidyl]methyl]-7-phenyl-pyrrolo[2,3-d]pyrimidin-4-one]"
9,102,"CC(=O)N1CC[C@@H](C(=O)N2CCC(O)(Cn3cnc4c(ccn4-c4ccc(F)cc4)c3=O)CC2)[C@H](c2ccccc2)C1 [EXAMPLE 166, 3-[[1-[(3R,4R)-1-acetyl-3-phenyl-piperidine-4-carbonyl]-4-hydroxy-4-piperidyl]methyl]-7-(4-fluorophenyl)pyrrolo[2,3-d]pyrimidin-4-one]"
10,860,"COc1ccc(-n2ncc3c(=O)n(CC4(O)CCN(C(=O)[C@@H]5CC[N+](C)(C)C[C@H]5c5ccccc5)CC4)cnc32)cc1 [EXAMPLE 169, 5-[[1-[(3R,4R)-1,1-dimethyl-3-phenyl-piperidin-1-ium-4-carbonyl]-4-hydroxy-4-piperidyl]methyl]-1-(4-methoxyphenyl)pyrazolo[3,4-d]pyrimidin-4-one]"
11,103,"CC(C)C(=O)N1CC[C@@H](C(=O)N2CCC(O)(Cn3cnc4c(ccn4-c4ccccc4)c3=O)CC2)[C@H](c2ccccc2)C1 [EXAMPLE 177, 3-[[4-hydroxy-1-[(3R,4R)-1-(2-methylpropanoyl)-3-phenyl-piperidine-4-carbonyl]-4-piperidyl]methyl]-7-phenyl-pyrrolo[2,3-d]pyrimidin-4-one]"
12,96.1,"COc1ccc(-n2ccc3c(=O)n(CC4(O)CCN(C(=O)[C@@H]5CCN(C(C)=O)C[C@H]5c5ccccc5)CC4)cnc32)cc1 [EXAMPLE 178, 3-[[1-[(3R,4R)-1-acetyl-3-phenyl-piperidine-4-carbonyl]-4-hydroxy-4-piperidyl]methyl]-7-(4-methoxyphenyl)pyrrolo[2,3-d]pyrimidin-4-one]"
